Measured values as given in ChEMBL document CHEMBL1201862, “PubChem BioAssay data set” (2004).
Active and inactive are the calls of the source.

What was measured:
[1] = target: T1, Heat shock factor protein 1 (Mus musculus, UniProt P38532); assay: enhancement of HSF1-driven luciferase signal – cell-based, NIH3T3, luminescence, dose retest, confirmation (AID 435004); assay type: functional;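 further: stress induced by proteasome inhibitor MG132 added 30 min after compound; luciferase reporter driven by HSF1 response element in NIH3T3 cells; actives raise luminescence as potentiators of the MG132 stress response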
T1 sequence (P38532 whole entry): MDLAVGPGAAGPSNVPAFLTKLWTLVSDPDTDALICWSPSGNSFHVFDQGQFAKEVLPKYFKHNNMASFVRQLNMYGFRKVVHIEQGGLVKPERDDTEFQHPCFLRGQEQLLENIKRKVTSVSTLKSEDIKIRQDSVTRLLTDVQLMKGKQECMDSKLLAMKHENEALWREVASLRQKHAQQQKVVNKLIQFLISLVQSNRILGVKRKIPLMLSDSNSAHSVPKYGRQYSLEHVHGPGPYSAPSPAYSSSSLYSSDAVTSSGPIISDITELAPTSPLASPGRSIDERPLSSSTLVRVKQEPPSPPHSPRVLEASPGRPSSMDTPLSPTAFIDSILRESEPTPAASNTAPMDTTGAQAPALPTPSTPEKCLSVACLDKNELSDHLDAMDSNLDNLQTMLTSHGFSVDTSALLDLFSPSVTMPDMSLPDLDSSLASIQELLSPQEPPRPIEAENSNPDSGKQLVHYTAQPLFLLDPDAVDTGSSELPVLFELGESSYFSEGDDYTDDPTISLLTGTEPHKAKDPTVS

[2] = target: T2, Apoptotic protease-activating factor 1 (Homo sapiens, UniProt O14727); assay type: functional;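 on EC50 Mean: caspase-3 cleavage of fluorogenic Rh110 DEVD substrate downstream of apoptosome activation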
T2 sequence (O14727 whole entry): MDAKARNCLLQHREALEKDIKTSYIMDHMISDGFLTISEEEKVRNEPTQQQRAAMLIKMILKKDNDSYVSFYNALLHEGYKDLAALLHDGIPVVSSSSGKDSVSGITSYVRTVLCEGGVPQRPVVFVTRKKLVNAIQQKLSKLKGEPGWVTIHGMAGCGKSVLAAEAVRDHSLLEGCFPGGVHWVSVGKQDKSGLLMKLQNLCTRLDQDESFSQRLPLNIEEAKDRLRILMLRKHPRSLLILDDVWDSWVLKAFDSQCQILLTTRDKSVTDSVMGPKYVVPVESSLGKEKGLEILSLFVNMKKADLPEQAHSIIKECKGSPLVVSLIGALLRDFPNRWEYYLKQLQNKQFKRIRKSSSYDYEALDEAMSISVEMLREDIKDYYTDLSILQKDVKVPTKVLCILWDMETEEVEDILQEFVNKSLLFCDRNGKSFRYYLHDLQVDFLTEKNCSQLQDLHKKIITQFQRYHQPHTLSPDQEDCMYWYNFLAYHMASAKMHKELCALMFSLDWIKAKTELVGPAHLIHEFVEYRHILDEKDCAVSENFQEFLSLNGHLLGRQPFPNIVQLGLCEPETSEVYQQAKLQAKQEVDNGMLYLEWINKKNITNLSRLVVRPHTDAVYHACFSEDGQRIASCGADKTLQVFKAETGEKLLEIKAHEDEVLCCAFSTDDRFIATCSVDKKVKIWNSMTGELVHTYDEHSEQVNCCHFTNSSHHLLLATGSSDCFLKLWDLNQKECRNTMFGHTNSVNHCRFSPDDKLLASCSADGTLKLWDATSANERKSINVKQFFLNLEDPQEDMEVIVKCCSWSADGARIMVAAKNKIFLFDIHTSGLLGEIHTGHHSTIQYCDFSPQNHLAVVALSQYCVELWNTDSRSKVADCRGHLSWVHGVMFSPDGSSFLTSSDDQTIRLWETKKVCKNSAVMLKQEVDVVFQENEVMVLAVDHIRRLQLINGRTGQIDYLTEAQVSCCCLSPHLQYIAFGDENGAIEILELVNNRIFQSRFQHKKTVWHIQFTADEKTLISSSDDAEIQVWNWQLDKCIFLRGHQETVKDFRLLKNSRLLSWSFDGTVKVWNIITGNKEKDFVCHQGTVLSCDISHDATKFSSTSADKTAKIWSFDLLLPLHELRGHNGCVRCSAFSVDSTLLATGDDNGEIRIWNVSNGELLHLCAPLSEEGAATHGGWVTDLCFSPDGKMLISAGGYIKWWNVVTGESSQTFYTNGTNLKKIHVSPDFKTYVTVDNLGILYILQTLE

[3] = target: T3, High affinity choline transporter 1 (Homo sapiens, UniProt Q9GZV3); assay: human choline transporter blockers, potency – cell-based, 10-point CRC, membrane potential dye, dose response (AID 588401); assay type: functional;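 further: membrane potential dye fluorescence of choline-evoked depolarization via CHT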
T3 sequence (Q9GZV3 whole entry): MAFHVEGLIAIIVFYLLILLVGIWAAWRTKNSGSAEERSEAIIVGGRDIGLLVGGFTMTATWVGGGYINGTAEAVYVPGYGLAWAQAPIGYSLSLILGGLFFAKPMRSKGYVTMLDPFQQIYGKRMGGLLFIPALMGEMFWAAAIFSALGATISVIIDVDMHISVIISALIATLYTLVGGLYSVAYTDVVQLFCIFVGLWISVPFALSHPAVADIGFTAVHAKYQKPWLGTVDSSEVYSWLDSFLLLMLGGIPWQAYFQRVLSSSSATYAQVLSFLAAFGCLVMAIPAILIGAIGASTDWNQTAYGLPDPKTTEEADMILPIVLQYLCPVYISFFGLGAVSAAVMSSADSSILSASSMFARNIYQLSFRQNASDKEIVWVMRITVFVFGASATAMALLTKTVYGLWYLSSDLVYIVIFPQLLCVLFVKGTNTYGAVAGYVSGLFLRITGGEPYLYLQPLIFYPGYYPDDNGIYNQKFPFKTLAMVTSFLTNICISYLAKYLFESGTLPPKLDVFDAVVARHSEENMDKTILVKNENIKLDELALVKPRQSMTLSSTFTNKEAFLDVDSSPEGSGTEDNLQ

[4] = target: T3, High affinity choline transporter 1; assay: human choline transporter blockers, potency – cell-based, 5-point CRC, membrane potential dye, dose response (AID 504840); assay type: functional
H9c2 = assay: cells; assay type: functional, cell-based; details: Rattus norvegicus, H9c2, Myocardium;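 further: confirmatory concentration-response retest of ultra-high-throughput screening hits for modulation of myocardial damage; cell death induced by hydrogen peroxide oxidative stress; compound pretreatment for 60 min then peroxide exposure for 2 h; potency is for protecting the cells against peroxide damage rather than for killing them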
[5] = target: T2, Apoptotic protease-activating factor 1; assay: SAR analysis of small molecule Activators of Apaf-1 in a Fluorescent assay.; assay type: functional; details: read-out: EC50_Mean
P388/ADR = assay: cells; assay type: functional; details: Mus musculus
P388 = assay: cells; assay type: functional; details: Mus musculus
SN12K1 = assay: cells; assay type: functional; details: Homo sapiens
Cytochrome P450 3A4 [6] = target: T4, Cytochrome P450 3A4 (Homo sapiens, UniProt P08684)
T4 sequence (P08684 whole entry): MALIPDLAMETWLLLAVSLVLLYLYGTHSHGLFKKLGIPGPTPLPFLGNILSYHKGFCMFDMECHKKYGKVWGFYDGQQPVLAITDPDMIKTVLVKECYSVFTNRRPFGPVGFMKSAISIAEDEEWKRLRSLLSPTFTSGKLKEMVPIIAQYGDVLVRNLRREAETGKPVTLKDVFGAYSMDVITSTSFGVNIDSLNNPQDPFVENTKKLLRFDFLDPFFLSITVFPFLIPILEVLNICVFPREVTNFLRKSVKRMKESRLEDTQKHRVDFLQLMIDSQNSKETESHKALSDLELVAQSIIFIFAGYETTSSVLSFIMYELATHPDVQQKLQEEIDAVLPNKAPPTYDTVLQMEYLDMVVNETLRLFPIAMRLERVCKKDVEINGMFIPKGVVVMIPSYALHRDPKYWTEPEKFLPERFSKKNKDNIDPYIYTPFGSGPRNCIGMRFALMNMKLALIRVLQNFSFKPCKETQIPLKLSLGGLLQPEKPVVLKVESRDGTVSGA

[7] = target: T5, Calpain-2 catalytic subunit (Sus scrofa, UniProt P43367); assay: m-calpain protease blockers, concentration series – biochemical, fluorogenic peptide substrate, dose response (AID 1420); assay type: functional
T5 sequence (P43367 whole entry): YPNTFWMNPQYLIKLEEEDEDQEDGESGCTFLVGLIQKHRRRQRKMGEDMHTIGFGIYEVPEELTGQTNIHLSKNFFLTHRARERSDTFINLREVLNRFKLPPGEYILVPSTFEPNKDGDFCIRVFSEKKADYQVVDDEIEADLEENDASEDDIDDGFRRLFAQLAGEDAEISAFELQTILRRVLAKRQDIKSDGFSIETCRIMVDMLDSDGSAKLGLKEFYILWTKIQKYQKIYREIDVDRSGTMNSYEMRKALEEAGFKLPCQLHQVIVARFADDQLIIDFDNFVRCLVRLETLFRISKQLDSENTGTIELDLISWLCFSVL

Cytochrome P450 2C9 = Cytochrome P450 2C9 (Homo sapiens, UniProt P11712)
Sequence of Cytochrome P450 2C9 (P11712 whole entry): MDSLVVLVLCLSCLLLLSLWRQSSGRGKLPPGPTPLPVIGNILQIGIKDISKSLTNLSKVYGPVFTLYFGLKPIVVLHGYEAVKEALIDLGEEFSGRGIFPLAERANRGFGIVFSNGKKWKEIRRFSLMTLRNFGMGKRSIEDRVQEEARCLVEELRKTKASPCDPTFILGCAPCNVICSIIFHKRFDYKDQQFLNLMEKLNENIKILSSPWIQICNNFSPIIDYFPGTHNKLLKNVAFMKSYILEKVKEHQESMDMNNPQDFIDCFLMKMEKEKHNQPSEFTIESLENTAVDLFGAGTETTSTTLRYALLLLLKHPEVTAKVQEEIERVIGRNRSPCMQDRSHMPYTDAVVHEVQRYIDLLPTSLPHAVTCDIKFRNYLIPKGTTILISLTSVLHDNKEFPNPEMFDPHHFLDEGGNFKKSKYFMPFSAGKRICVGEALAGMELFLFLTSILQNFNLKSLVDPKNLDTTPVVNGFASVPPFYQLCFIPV

SUMO-activating enzyme = SUMO-activating enzyme (Homo sapiens, UniProt Q9UBT2); assay: blockers of UBC9-mediated SUMO conjugation – biochemical, AlphaScreen, SUMOylation inhibitor project, confirmation (AID 2018); assay type: functional
Sequence of SUMO-activating enzyme (Q9UBE0 whole entry): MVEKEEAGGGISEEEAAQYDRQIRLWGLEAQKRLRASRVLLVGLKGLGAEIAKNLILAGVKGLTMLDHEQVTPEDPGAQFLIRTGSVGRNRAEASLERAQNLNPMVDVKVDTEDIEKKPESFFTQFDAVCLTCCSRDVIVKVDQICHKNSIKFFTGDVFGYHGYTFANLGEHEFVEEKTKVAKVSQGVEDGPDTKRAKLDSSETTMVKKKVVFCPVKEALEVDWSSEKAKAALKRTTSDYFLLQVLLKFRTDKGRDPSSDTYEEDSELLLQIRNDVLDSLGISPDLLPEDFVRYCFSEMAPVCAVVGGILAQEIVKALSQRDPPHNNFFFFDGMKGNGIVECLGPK
Sequence of SUMO-activating enzyme (Q9UBT2 whole entry): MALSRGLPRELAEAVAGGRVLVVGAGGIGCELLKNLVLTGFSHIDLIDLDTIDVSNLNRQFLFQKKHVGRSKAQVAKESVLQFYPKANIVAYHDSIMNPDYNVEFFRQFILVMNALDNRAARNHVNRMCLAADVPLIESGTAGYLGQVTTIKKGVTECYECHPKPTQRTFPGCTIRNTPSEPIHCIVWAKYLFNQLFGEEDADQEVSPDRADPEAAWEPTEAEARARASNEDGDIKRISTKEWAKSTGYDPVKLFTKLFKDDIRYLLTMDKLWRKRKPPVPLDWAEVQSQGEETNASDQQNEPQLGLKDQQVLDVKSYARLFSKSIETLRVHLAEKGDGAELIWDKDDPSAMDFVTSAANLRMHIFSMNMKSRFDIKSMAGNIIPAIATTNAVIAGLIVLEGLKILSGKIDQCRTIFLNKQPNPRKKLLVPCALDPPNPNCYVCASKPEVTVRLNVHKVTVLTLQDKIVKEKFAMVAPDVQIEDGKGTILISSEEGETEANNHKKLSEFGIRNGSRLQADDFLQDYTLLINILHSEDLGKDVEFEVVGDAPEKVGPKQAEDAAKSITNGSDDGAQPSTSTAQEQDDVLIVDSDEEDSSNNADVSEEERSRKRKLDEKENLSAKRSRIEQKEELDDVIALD

Cytochrome P450 1A2 = target: T6, Cytochrome P450 1A2 (Homo sapiens, UniProt P05177);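 further: PubChem cytochrome P450 panel assay, CYP1A2 panel member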
T6 sequence (P05177 whole entry): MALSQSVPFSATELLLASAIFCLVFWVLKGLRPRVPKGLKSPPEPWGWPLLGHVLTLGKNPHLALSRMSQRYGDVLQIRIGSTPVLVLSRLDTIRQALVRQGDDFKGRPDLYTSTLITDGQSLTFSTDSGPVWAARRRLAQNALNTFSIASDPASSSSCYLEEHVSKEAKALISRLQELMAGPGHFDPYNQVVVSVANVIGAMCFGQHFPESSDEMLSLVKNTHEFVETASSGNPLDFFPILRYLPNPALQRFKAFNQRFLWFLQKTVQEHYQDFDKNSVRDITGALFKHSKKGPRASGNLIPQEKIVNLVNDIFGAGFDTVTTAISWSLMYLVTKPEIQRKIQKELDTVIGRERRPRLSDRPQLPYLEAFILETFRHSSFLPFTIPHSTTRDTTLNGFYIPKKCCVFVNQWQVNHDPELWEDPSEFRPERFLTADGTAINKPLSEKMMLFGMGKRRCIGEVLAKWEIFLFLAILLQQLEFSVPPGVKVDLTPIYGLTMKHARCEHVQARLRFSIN

[8] = target: FAD-linked sulfhydryl oxidase ALR (Homo sapiens, UniProt P55789); assay: ALR-catalysed DTT oxidation blockers – biochemical, H2O2 detection, luminescence, cherry-pick, dose response (AID 493248)
Sequence of FAD-linked sulfhydryl oxidase ALR (P55789 whole entry): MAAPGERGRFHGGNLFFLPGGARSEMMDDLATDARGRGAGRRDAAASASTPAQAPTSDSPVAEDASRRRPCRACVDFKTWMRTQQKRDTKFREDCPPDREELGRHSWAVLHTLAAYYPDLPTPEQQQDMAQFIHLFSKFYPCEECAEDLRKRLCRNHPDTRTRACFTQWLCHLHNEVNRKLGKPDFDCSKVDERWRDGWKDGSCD

[9] = target: Glucose-6-phosphate 1-dehydrogenase (Homo sapiens, UniProt P11413); assay: inhibition of Homo sapiens G6PD, dose series – biochemical, fluorescence, selectivity assay for P. falciparum G6PD inhibitor project, dose response (AID 504792); assay type: functional
Sequence of Glucose-6-phosphate 1-dehydrogenase (P11413 whole entry): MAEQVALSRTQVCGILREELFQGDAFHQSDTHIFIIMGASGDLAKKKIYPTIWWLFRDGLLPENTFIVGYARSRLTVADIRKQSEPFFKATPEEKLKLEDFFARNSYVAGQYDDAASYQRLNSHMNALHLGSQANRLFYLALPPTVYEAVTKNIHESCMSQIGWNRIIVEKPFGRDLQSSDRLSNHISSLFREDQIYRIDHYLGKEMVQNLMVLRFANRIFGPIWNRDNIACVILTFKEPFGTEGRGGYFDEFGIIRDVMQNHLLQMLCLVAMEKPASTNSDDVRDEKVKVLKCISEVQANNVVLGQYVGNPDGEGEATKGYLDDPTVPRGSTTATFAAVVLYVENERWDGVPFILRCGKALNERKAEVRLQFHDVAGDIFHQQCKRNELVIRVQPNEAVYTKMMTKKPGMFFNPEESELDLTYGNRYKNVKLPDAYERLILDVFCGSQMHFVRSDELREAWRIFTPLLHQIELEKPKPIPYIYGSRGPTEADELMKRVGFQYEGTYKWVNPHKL

[10] = Trypanosoma cruzi growth suppression in host cells – NIH3T3 host cells, beta-gal luminescence, confirmation (AID 2044); assay type: functional, cell-based;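 further: intracellular parasites grown in NIH/3T3 mouse fibroblasts as host cells; luminescent beta-galactosidase reporter signal from transgenic T. cruzi replicating inside host cells; inhibitors lower the luminescence signal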
[11] = NIH3T3 cell viability loss – ATP luminescence, mouse fibroblasts, counter-screen, dose response (AID 2010); assay type: functional, cell-based;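 further: cells exposed to compound for about 90 hours before reading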
[12] = target: T7, Mitochondrial peptide methionine sulfoxide reductase (Bos taurus, UniProt P54149); assay: Absorbance-based biochemical high throughput dose response assay for activators of Methionine sulfoxide reductase A (MsrA).; assay type: functional
T7 sequence (P54149 whole entry): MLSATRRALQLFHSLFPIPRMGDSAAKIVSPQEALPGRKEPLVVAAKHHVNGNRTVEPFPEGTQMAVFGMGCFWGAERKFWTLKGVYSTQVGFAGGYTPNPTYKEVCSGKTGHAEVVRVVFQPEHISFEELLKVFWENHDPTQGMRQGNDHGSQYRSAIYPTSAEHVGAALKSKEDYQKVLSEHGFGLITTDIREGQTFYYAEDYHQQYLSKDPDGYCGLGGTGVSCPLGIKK

[13] = viability of HCT116 lacking mutant beta-catenin – cell-based, human colon tumor, dose response (AID 1045); assay type: functional;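 further: HCT116 colon tumor cells with beta catenin knocked out; cells exposed to compound for 60 hours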
[14] = viability of PTEN-deleted HCT116 cells – cell-based, HCT116 PTEN knockout, dose response (AID 1047); assay type: functional;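 further: HCT116 colon tumor cells with PTEN knocked out; cells exposed to compound for 60 hours before readout; potency for loss of cell viability measured by luminescence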
Vero = assay: cells; assay type: functional; details: Chlorocebus sabaeus
Cytochrome P450 3A4 [15] = target: T4, Cytochrome P450 3A4; details: Potency

Oc1c(Br)cc(Br)cc1/C=N/c1cccc2ncccc12
EC50 [1]: > 260 µM (inactive)
IC50 [2]: 36 µM (active)
IC50 [3]: 4.74 µM (active)
IC50 [4]: 4.19 µM (active)
IC50 (H9c2): 13.5 µM (active)

Cc1cccc(C)c1N1C(=O)CC2(CC(c3ccc(F)cc3)=NO2)C1=O (stereo not given)
EC50 [5]: > 100 µM (inactive)

COc1cc(NCC(C)C(=O)O)cc(OC)c1OC (stereo not given)
EC50 [5]: > 100 µM (inactive)

O=NN(CCCl)C(=O)N[C@H]1CC[C@@H](CC(=O)O)CC1
GI50 (P388/ADR): 19.9 µM (inactive)
GI50 (P388): 12.9 µM (inactive)
GI50 (SN12K1): > 100 µM (inactive)

C=C1CC2CC[C@@]34C[C@@H]5O[C@@H]6C(O[C@H]7CC[C@H](CC(=O)OC8[C@@H](C)C9OC%10C[C@]%11(C[C@@H]%12O[C@@]%13(C[C@@H](C)[C@@H]%12O%11)C[C@H](C)[C@@H]%11OC%12CC(C(O)CO)OC%12C[C@@H]%11O%13)OC%10CC9O[C@H]8C[C@H]8O[C@@H](CC[C@@H]1O2)C[C@@H](C)C8=C)O[C@@H]7[C@@H]6O3)C5O4 (stereo not given in full)
GI50 (P388/ADR): 0.00416 µM (active)
GI50 (P388): 0.000148 µM (active)
GI50 (SN12K1): 0.000148 µM (active)

Cc1ccccc1NC(=O)c1ccc(N/N=C/c2ccccc2O)c([N+](=O)[O-])c1
AC50 (Cytochrome P450 3A4 [6]): 4.47 µM (inconclusive)
IC50 [7]: 18.9 µM (not active)
AC50 (Cytochrome P450 2C9): inconclusive
IC50 (SUMO-activating enzyme): 67.3 µM (active)
AC50 (Cytochrome P450 1A2): 14.1 µM (inconclusive)

O=c1ccsn1Cc1ccccc1
AC50 [8]: < 0.005 µM (active)
IC50 [9]: 75.6 µM (inactive)
EC50 [10]: 1.1 µM (active)
EC50 [11]: 37.5 µM (active)
EC50 [12]: > 104 µM (inactive)
EC50 [13]: 12.5 µM (active)
EC50 [14]: 13 µM (active)
CC50 (Vero): > 25 µM (active)

CC1OC(=O)C(C(C)C)NC(=O)C(C(C)C)OC(=O)C(C(C)C)NC(=O)C(C)OC(=O)C(C(C)C)NC(=O)C(C(C)C)OC(=O)C(C(C)C)NC(=O)C(C)OC(=O)C(C(C)C)NC(=O)C(C(C)C)OC(=O)C(C(C)C)NC1=O (stereo not given)
GI50 (P388/ADR): 0.00396 µM (active)
AC50 (Cytochrome P450 3A4 [15]): 12.6 µM (inconclusive)
GI50 (P388): 0.0025 µM (active)
GI50 (SN12K1): 0.00281 µM (active)
